Experimental findings from patent US4721718A, “2-[(imidazo[1,2-a]pyridin-3-ylmethyl)sulfinyl]-1H-benzimidazoles useful in the treatment and prevention of ulcers” (G. D. Searle & Co., priority 1986, dated 1988) are described below.

As a reminder, the IC50 is the concentration that gives 50% inhibition.

Structures are written as SMILES. A value given as a limit tells only on which side of the number the result lay.

For the test, the target named is T1, (H^+ +K^+)-ATPase (Canis lupus familiaris, UniProt P50996).
T1 construct: from tissue; host or cells: gastric glandular mucosa of mongrel dogs (microsomes from the 15-30% sucrose interface, lyophilized)
The test is described as follows: Inhibition of (H^+ +K^+)-ATPase from Canine Gastric Mucosa. It counts as biochemical, canine (mongrel dogs). Conditions: for IC50: canine gastric mucosa microsomes, 30 min preincubation at 37°, pH 6.0, K^+-stimulated minus basal activity. On the procedure: The antisecretory activity of the compounds of this invention illustrated in the Examples was tested by the following method.
Inhibition of ([…] +K^+)-ATPase from Canine Gastric Mucosa
Mongrel dogs weighing 15 to 25 kilograms were fasted for twenty-four hours, with water provided ad libitum. The animals were anesthetized with pentobarbital and the stomachs were removed. Subsequent tissue manipulations and subcellular fractionations were performed at 0° to 4° C. After the stomachs were cut open and rinsed with tap water, the antral and cardiac regions were removed and the remaining tissue was rinsed three times in saline. The glandular mucosa was removed mechanically, chopped finely in a medium containing 10 mM Tris hydrochloride (pH 7.4) and 250 mM sucrose, and homogenized. The homogenate was centrifuged at 20,000×g for twenty minutes and the pellet discarded. The supernatant was then centrifuged at 150,000xg for ninety minutes and the supernatant discarded. The pellet was resuspended in the Tris-HCl/sucrose medium by homogenization. Part (2 ml) of the resultant microsomal suspension was layered onto a step gradient consisting of 9 ml of 15% sucrose above 12 ml of 30% sucrose, each sucrose solution being buffered with 10 mM Tris hydrochloride (pH 7.4) containing 0.01% sodium azide. The microsomes retained at the 15-30% sucrose interface, after centrifugation at 250,000×g for sixty minutes, were used as the source of (H^+ +K^+)-ATPase. Microsomal preparations were lyophilized, a process that assured potassium ion permiability, and stored at -10° until used.
The (H^+ +K^+)-ATPase activity for each test compound was determined, in duplicate, by measuring the release of inorganic phosphate, which was assayed according to the method of J. ChandraRajan and L. Klein., Anal. Biochem., 72. 407-412 (1976). […] At least fifteen minutes later, the optical absorbance at 870 nm (which was proportional to inorganic phosphate concentration up to 100 nmoles per tube, as determined by a standard curve) was obtained. […]

T1 sequence (P50996 whole entry): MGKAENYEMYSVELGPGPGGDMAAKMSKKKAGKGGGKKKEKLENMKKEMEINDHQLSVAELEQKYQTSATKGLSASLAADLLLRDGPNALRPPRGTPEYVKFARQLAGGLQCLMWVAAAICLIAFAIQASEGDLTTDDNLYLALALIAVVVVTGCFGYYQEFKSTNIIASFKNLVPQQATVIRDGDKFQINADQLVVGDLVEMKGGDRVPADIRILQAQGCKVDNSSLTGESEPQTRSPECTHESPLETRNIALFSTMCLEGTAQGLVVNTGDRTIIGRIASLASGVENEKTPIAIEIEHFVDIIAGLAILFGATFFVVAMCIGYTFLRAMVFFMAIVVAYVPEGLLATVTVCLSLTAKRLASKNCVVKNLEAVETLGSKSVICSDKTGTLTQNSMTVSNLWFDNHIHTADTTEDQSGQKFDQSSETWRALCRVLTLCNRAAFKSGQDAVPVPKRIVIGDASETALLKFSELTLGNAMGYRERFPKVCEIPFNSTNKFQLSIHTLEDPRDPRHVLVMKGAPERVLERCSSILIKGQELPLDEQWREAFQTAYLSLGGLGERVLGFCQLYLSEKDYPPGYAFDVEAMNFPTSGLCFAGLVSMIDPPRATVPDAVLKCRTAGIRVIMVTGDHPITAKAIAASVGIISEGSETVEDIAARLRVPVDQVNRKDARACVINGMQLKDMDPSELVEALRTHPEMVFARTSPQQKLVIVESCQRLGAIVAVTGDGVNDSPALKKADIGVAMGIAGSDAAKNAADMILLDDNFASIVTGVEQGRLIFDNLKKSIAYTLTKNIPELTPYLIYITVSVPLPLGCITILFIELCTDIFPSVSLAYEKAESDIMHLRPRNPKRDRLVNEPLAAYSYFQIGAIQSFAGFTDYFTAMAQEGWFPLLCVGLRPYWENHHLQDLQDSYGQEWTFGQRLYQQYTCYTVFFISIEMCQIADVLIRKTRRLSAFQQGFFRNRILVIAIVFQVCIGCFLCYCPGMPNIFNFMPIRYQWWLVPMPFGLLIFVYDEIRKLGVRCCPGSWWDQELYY
T1 sequence (P33704 whole entry partner): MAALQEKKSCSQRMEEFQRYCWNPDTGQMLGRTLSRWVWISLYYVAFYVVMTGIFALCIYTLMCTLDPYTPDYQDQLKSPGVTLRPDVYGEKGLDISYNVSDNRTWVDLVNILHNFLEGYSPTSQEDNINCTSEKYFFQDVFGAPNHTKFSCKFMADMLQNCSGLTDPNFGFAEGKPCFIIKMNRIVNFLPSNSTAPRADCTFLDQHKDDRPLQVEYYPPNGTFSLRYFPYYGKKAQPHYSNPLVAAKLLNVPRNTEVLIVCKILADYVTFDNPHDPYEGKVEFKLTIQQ

Consider `[O-][S+](Cc1cnc2ccccn12)c1nc2ccccc2[nH]1` (stereo not drawn) [Example 2, 2-[(imidazo[1,2-a]pyridin-3-ylmethyl)sulfinyl]-1H-benzimidazole 1/4 hydrate], for which the IC50 was 3.88 µM. `[O-][S+](Cc1cn2ccccc2n1)c1nc2ccccc2[nH]1` (stereo not drawn) [Example 4, 2-[(imidazo[1,2-a]pyridin-2-ylmethyl)sulfinyl]-1H-benzimidazole]: the IC50 was above 100 µM. Moreover, the “inhibition of (H^+ +K^+)-ATPase activity (in words)” value (as shown in Table I) is listed as “not inhibiting (H^+ +K^+)-ATPase activity”.
